Experiments:
HT-29 = assay: Cytotoxicity against human HT-29 cells assessed as cell growth inhibition incubated for 6 hrs by SRB assay; format: functional, cell-based; conditions: HT-29, 6 h
MCF7 = assay: Cytotoxicity against human MCF7 cells assessed as cell growth inhibition incubated for 6 hrs by SRB assay; format: functional, cell-based; conditions: MCF7, 6 h
CCRF-CEM = assay: Cytotoxicity against human CEM cells assessed as cell growth inhibition incubated for 6 hrs by SRB assay; format: functional, cell-based
[1] = Cytotoxicity against fibroblasts (unknown origin) assessed as cell growth inhibition incubated for 6 hrs by SRB assay; format: toxicity, cell-based, Fibroblast
NCI-H460 = assay: Cytotoxicity against human NCI-H460 cells assessed as cell growth inhibition incubated for 6 hrs by SRB assay; format: functional, cell-based; conditions: NCI-H460, 6 h

| SMILES | IC50 (HT-29) [µM] | IC50 (MCF7) [µM] | IC50 (CCRF-CEM) [µM] | IC50 at 6 h [1] [µM] | IC50 (NCI-H460) [µM] |
| --- | --- | --- | --- | --- | --- |
| CC1(C)CCC[C@@]2(C)Oc3c(c(O)cc4oc(-c5ccc(O)c(O)c5)cc(=O)c34)C[C@H]12 | 36 | 17.7 | 4.8 | 36 |  |
| CC1(C)CCC[C@]2(C)Oc3c(c(O)cc4oc(-c5ccc(O)c(O)c5)cc(=O)c34)C[C@@H]12 | 24.5 | 6.5 | 4.2 | 24.5 |  |
| CC1(C)CCC[C@@]2(C)Oc3cc4oc(-c5ccc(O)c(O)c5)cc(=O)c4c(O)c3C[C@@H]12 | 37.1 | 19.1 | 5.2 | 37.1 | 7.1 |
| CC1(C)CCC[C@@]2(C)Oc3c(c(O)cc4oc(-c5ccc(O)c(O)c5)cc(=O)c34)C[C@@H]12 [UGONIN S] | 21.9 | 8.8 | 6.2 | 21.9 |  |
| CC1(C)CCC[C@]2(C)Oc3cc4oc(-c5ccc(O)c(O)c5)cc(=O)c4c(O)c3C[C@H]12 | 21.9 | 16.7 | 4.2 | 24.5 | 2.2 |
| COc1cccc2c1C(=O)c1c(O)c3c(c(O)c1C2=O)C[C@@](O)(C(=O)CO)C[C@@H]3O[C@H]1C[C@H](N)[C@H](O)[C@H](C)O1 [DOXORUBICIN] | 0.23 | 0.54 | 0.11 | 56.3 | 0.01 |
| CC1(C)CCC[C@]2(C)Oc3cc(O)c4c(=O)cc(-c5ccc(O)c(O)c5)oc4c3C[C@H]12 | 33.2 | 26 | 1.7 | 33.2 | 17.5 |
| CC1(C)CCC[C@]2(C)Oc3c(c(O)cc4oc(-c5ccc(O)c(O)c5)cc(=O)c34)C[C@H]12 | 34.1 | 18.9 | 5.9 | 34.1 |  |
| CC1(C)CCC[C@@]2(C)Oc3cc(O)c4c(=O)cc(-c5ccc(O)c(O)c5)oc4c3C[C@@H]12 | 27.5 | 28.2 | 16.4 | 27.5 | 18.3 |

Source: ChEMBL document CHEMBL6103651, “Total Syntheses, Absolute Configuration, and Cytotoxicity Evaluation of Ugonins L, S, U, and Z from the Rhizomes of Helminthostachys zeylanica” (J Nat Prod, 2025)
